In US20140274919A1, “BORON-CONTAINING COMPOSITIONS AND METHODS THEREFOR” (VDF FutureCeuticals, Inc., priority 2011, published 2014):

Legend:
Format in all cases: in vivo
adiponectin = experiment: Oral administration to human volunteers: blood concentration of adiponectin; details: samples at 30 minute intervals vs time 0, FIG. 2
Method: In this instance the effect of oral administration of CFB on the blood concentration of adiponectin, along with the effect of administration of sodium borate (Na borate), and a placebo compound was measured. Blood samples were taken at a time 0 prior to administration in order to establish a baseline concentration for each individual. Additional samples were taken at 30 minute intervals, and the concentration of adiponectin compared to the baseline level determined for each individual. […] The mechanism for this increase in adiponectin concentration in the blood is not known, but it is contemplated that it may due to increased synthesis, increased release of stored adiponectin, or a combination of these. Therefore, in some embodiments of the inventive subject matter blood concentrations of adiponectin may be increased by about 1%, 2%, 3%, 4%, 5%, 10%, 15%, 20%, 25%, 30%, or more relative to pretreatment values following administration of a boro-carbohydrate complex.
(§1) In all of the above oral administrations, the human volunteers were provided with orally administered single daily doses of 5-50 mg of calcium fructoborate for at least 14 days. […]

YKL-40 = experiment: Oral administration to human volunteers: YKL-40 in blood (Quidel immunoassay); details: samples after 7 and 14 days vs Day 0, FIG. 3
Method: In all of the above oral administrations, the human volunteers were provided with orally administered single daily doses of 5-50 mg of calcium fructoborate for at least 14 days. However, it should be noted that the orally administered compositions may vary considerably, so long as at least 0.1 mg, more typically at least 1.0 mg, and most typically at least 10-100 mg of the compound are administered to the human (or other mammal). Thus, typical administrations will provide 0.001-0.01 mg/kg, more typically 0.01-0.1 mg/kg, and most typically 0.1-5.0 mg/kg (and in some cases even higher) of the boro-carbohydrate compound per day. […]
In this instance the effect of the administration of CFB on the concentration of YKL-40 in the blood of human volunteers, along with the effect of administration of sodium borate (Na borate) and a placebo compound, was measured. […]
Additional samples were taken after 7 and 14 days of treatment, and the concentration of YKL-40 compared to the baseline level determined for each individual. YKL-40 was characterized using a commercially available immunoassay from Quidel (San Diego, Calif.) according to the manufacturer's directions, and the percentage change from pretreatment concentrations of YKL-40 were calculated. […]

C-reactive protein (CRP) = experiment: Oral administration to human volunteers: circulating C-reactive protein; details: FIG. 4
Method: In all of the above oral administrations, the human volunteers were provided with orally administered single daily doses of 5-50 mg of calcium fructoborate for at least 14 days. However, it should be noted that the orally administered compositions may vary considerably, so long as at least 0.1 mg, more typically at least 1.0 mg, and most typically at least 10-100 mg of the compound are administered to the human (or other mammal). Thus, typical administrations will provide 0.001-0.01 mg/kg, more typically 0.01-0.1 mg/kg, and most typically 0.1-5.0 mg/kg (and in some cases even higher) of the boro-carbohydrate compound per day. Such administration may be performed in numerous formats, and all types of formulations comprising contemplated compounds are deemed suitable for use herein, including as nutritional supplement, as ingredient in a snack (e.g., energy bar, fruit leather, etc.), a cereal, a beverage, etc.
Additionally, it is contemplated that compounds and compositions according to the inventive subject matter may influence various parameters associated with an inflammatory response, as YKL-40 has been proposed as a diagnostic marker for inflammation. […] Thus, it should be appreciated that contemplated compositions are especially advantageous in reduction of inflammatory markers and conditions associated with increased levels of such markers.

[1] = system: under-carboxylated osteocalcin; experiment: Oral administration to human volunteers: under-carboxylated osteocalcin in blood (Cusabio immunoassay); details: single daily doses of 5-50 mg, samples after 7 and 14 days vs day 0, FIG. 1
Method: In this instance the effect of administration of a CFB on the concentration of under-carboxylated osteocalcin in the blood of human volunteers, along with the effect of administration of sodium borate (Na borate) and a placebo compound was measured. Blood samples were taken at day 0 prior to administration in order to establish a baseline concentration for each individual. Additional samples were taken after 7 and 14 days of treatment. Under-carboxylated osteocalcin was characterized using a commercially available immunoassay from Cusabio Biotech Co. LTD (Newark, Del.) according to the manufacturer's directions, and the percentage change from pretreatment concentrations of under-carboxylated osteocalcin were calculated. […] In some embodiments of the inventive subject matter the percentage of under-carboxylated osteocalcin (including non-carboxylated osteocalcin) may thus be reduced by about 1%, 2%, 3%, 4%, 5%, 10%, 15%, 20%, 25%, 30%, 35%, 40%, 45%, 50% or more relative to pretreatment values following oral administration of CFB.
as §1

total osteocalcin = experiment: Oral administration to human volunteers: total osteocalcin in blood; details: data not shown

Compound | blood concentration of adiponectin compared to baseline (adiponectin) | concentration of YKL-40 in blood, percentage change from pretreatment (YKL-40) | concentration of circulating CRP (C-reactive protein (CRP)) | concentration of under-carboxylated osteocalcin in blood, percentage change from pretreatment [1] | effect on total osteocalcin (total osteocalcin)
O.O.O.O.O.O.O.O.O.O.[Na+].[Na+].[O-]B1OB2OB([O-])OB(O1)O2 [sodium borate, reference compound] | similar, but markedly reduced, effect | – | – | – | –
calcium fructoborate [CFB] | rapid and sustained increase | significant reduction | substantially greater effect on reducing the concentration of CRP than sodium borate | significant reduction | no discernable effect
